Key:
[1] = system: NCTC 13427 (lux+ cdd deficient E. coli MG 1655 expressing human dCK); assay: Response of bioluminescent bacterial biosensor (growth OD600 and light output); type: cell-based
Source text: (§1) Bacterial Strains, Plasmids and Growth Media. E. coli SØ5218 is a cdd-deficient strain expressing the human dCK cDNA on the IPTG-inducible pTrc99-A plasmid. E. coli MG1655 is a derivative of the wild-type E. coli K-12 with a requirement for pyrimidine in minimal medium, due to suboptimal expression of the orotate phosphoribosyltransferase gene coded for by pyrE. Both strains were made self-bioluminescent by transforming them with the broad-host vector pBBR1MCS-2 carrying the luxCDABE cassette from Photorhabdus luminescens as an EcoRI PCR fragment. Luria-Bertani (LB) medium was used for routine culturing of bacteria. The antibiotics ampicillin (to maintain pTrc-A) and kanamycin (to maintain pBBR1MCS-2) were added at 100 and 10 μg/ml, respectively. Growth inhibition experiments were performed in LB RPMI 1640 or in minimal salt medium (AB) plus 0.2% glucose, 0.2% vitamin-free casamino acids and supplemented with thiamine and leucine.
Construction of a cdd-deficient strain of E. coli MG 1655. A library of E. coli MG 1655 strains was constructed using transposition mutagenesis with P1 phage carrying the Tn10 transposon. Mutants carrying the transposon were selected for by plating on tetracycline (10 μg/ml) agar plates and cdd mutants were selected for by plating on to plates containing 10 μg/ml of the analogue 5-fluoro-2′ deoxycytidine which is toxic to E. coli expressing cdd. The phenotype of cdd mutants was confirmed by the absence of cytidine deaminase activity.
In order to measure Ara-C response in a nutrient rich intracellular environment, an alternative cdd-deficient strain of a bioluminescent E. coli MG1655 mutant was constructed using transposon mutagenesis, which was further transformed with pTrc99-A, to give IPTG inducible expression of dCK. […] One possible explanation for the light increase is that the DNA damage caused by Ara-CTP induces bioluminescence that could be used in DNA repair by a photo-reactivation process.
In order to increase the specificity of the proposed assay, direct effects of the active intracellular drug derivative, Ara-CTP, on the bacterial biosensor were monitored (FIG. 3A). […] To verify this, the assay was repeated with the addition of alkaline phosphatase at the start.

[2] = system: Escherichia coli; conditions: lacks dCK, deaminates Ara-C via cdd; cited from earlier work
[3] = system: AML patient derived samples; assay: Cell Titer-Glo luminescent cell viability (cytotox) assay, patient samples; type: cell-based, human; conditions: 25 μM Ara-C 72 hours
Method: (§2) Cell lines, bone marrow and blood samples. The monocytic cell line KG-1a (DSMZ, Germany) was grown and maintained as a cell suspension in RPMI 1640 medium supplemented with 2 mM L-glutamine and 10% foetal calf serum. Mononuclear cell fractions were isolated from patient peripheral blood or bone marrow samples (n=8) using density gradient centrifugation (SG […]) followed by resuspension in RPMI 1640 medium prior to incubation with Ara-C. Cryopreserved bone marrow samples were thawed and re-suspended in RPMI 1640 medium prior to drug exposure.
(§3) Cell Lysis Assay. AML cell lines or patient derived samples were treated with 25 μM Ara-C for 90 min at 37° C. and 5% CO2, harvested, washed and resuspended in fresh RPMI 1640 medium. EDTA and saponin were added to final concentrations of 1.5 mM and 0.1%, respectively. Samples were then vortexed for 30 sec and cell debris were removed by centrifugation at 1027 g for 5 min. Samples from the lysate or supernatant were mixed with reporter bacteria, 1 mM of IPTG an 10 units of alkaline phosphatase. Bioluminescence and growth (OD600) of the bacteria were monitored in a multimode microplate reader. Sensitivity of AML cell lines or patient derived samples to Ara-C was also assayed using Cell Titer-Glo® Luminescent Cell Viability Assay kit (Promega). Samples were treated with 25 μM Ara-C for 72 hours at 37° C. and 5% CO2 before measuring intracellular levels of ATP according to manufacturer's instructions. Paired t-tests were used to analyse significant differences in bioluminescence output between control and treated assay samples.

[4] = system: E. coli SØ5218; assay: Growth of cdd-deficient E. coli mutant SØ5218 expressing human dCK; type: cell-based; conditions: rich growth medium (data not shown)
Source text: Ara-C has no effect on Escherichia coli as it lacks dCK and deaminates Ara-C into Ara-uracil through the activity of deoxycytidine deaminase (cdd). Wang et al., Antimicrob. Agents. […] The Ara-C effect on growth was completely abolished when assayed in the absence of the dCK inducible […], IPTG, indicating human dCK expression in the bacteria leads to Ara-CTP incorporation into bacterial DNA.
as §1, with “leucine. […]” for “leucine.”

[5] = system: KG-1a cells; assay: Cell Titer-Glo luminescent cell viability (three day cytotoxicity) assay, cell line; type: cell-based; conditions: 25 μM Ara-C, 72 hours
Method: as §2
as §3, with “Samples were treated with 25 μM Ara-C for 72 hours at 37° C. and 5% CO2 before measuring intracellular levels of ATP according to manufacturer's instructions. Paired t-tests were used to analyse significant differences in bioluminescence output between control and treated assay samples.” left out

[6] = system: AML; assay: Clinical outcome of AML patients (Ara-C used in induction therapy); type: in vivo, human; parameters: key: NR = No remission; CR = Complete remission; conditions: Table 2 patient 4, diagnosis M4
[7] = system: AML patient derived samples; assay: Cell lysis assay with bioluminescent reporter bacteria, patient samples; type: cell-based, human; conditions: for Bioluminescent Assay (sensitive): 25 μM Ara-C 90 min; for Treatment % difference in peak RLU a) L:LI / Treatment % difference in peak RLU b) L:LIP / Treatment % difference in peak RLU c) LI:LIP: drug treated minus control
Method: as §2, §3
A representation of light output during the bioluminescent assay for patients who are metabolic sensitive, metabolic resistant, metabolic partially resistant and uptake resistant is shown in FIG. 5.
Table 3 validates the application of the bioluminescent assay using relative percentage differences in peak light output from the various treatments to identify resistant and sensitive patients. Data shown in Table 3 is computed according to the equation {[RLU drug treated sample (LIP/LI)−RLU control (LIP/LI)]×100}, using c) as an example.

[8] = system: AML; assay: Clinical outcome of AML patients (Ara-C used in induction therapy); type: in vivo, human; parameters: key: NR = No remission; CR = Complete remission
Method: The assay was evaluated using a KG-1a cell line and AML samples from patients with known response to Ara-C used in induction therapy. FIG. 6 depicts the light output from the lysate of the Ara-C sensitive cell line KG-1a treated with high (25 μM) Ara-C concentrations. […] The three day cytotoxicity test confirmed that KG-1a cells are sensitive to Ara-C.
The cell lysis assay was applied to clinical samples of peripheral blood ([…]) from AML patients. These preliminary assays, conducted on 7 clinical samples, gave 100% correlation with clinical response to therapy.

[9] = system: KG-1a cells; assay: Cell lysis assay with bioluminescent reporter bacteria, cell line; type: cell-based; conditions: KG-1a treated with 25 μM Ara-C, p=0.0001
Method: as §2
as §3, with “Samples were treated with 25 μM Ara-C for 72 hours at 37° C. and 5% CO2 before measuring intracellular levels of ATP according to manufacturer's instructions. Paired t-tests were used to analyse significant differences in bioluminescence output between control and treated assay samples.” left out

[10] = system: E. coli SØ5218; conditions: upon expression of human dCK gene (IPTG), Wang et al. 1998; cited from earlier work
[11] = Table 2 patient 1, diagnosis M2
[12] = Table 2 patient 2, diagnosis M4
[13] = Table 2 patient 3, diagnosis M2
[14] = Table 2 patient 4, diagnosis M4
[15] = Table 2 patient 5, diagnosis M4
[16] = Table 2 patient 6, diagnosis M0
[17] = Table 2 patient 7, diagnosis M3

## Nc1ccn([C@@H]2O[C@H](COP(=O)(O)OP(=O)(O)OP(=O)(O)O)[C@@H](O)[C@@H]2O)c(=O)n1 [Ara-CTP]
[1]; Ara-CTP added without alkaline phosphatase, FIG. 3A
  direct entry into reporter bacteria: does not directly enter reporter bacteria
[1]; alkaline phosphatase added at the start, FIG. 3B
  time after which increase in light output was evident: 3 to 5 h
[1]; no alkaline phosphatase added
  time of growth after which increase in light output was observed: at least 15 h

## Nc1ccn([C@@H]2O[C@H](CO)[C@@H](O)[C@@H]2O)c(=O)n1 [Ara-C]
[2]
  effect on Escherichia coli: no effect
[3]; [11]
  Cytotox Assay (DLO): 84%
[3]; [12]
  Cytotox Assay (DLO): 99%
[3]; [13]
  Cytotox Assay (DLO): 79%
[3]; [14]
  Cytotox Assay (DLO): 99%
[3]; [15]
  Cytotox Assay (DLO): 62%
[3]; [16]
  Cytotox Assay (DLO): 5%
[3]; [17]
  Cytotox Assay (DLO): 91%
[4]
  response of SØ5218: did not respond
[5]
  three day cytotoxicity test: sensitive
[6]
  Clinical Outcome: CR
[7]; [11]
  Bioluminescent Assay (sensitive): No
[7]; [12]
  Bioluminescent Assay (sensitive): Yes
[7]; [13]
  Bioluminescent Assay (sensitive): No
[7]; [14]
  Bioluminescent Assay (sensitive): Yes
[7]; [15]
  Bioluminescent Assay (sensitive): No
[7]; [16]
  Bioluminescent Assay (sensitive): No
[7]; [17]
  Bioluminescent Assay (sensitive): No
[7]; Table 3 patient 1
  interaction of the drug with the patient sample (uptake and metabolism category): take up and metabolise the drug
  Treatment % difference in peak RLU a) L:LI: −10.25%
  Treatment % difference in peak RLU b) L:LIP: 19.20%
  Treatment % difference in peak RLU c) LI:LIP: 24.19%
[7]; Table 3 patient 2
  interaction of the drug with the patient sample (uptake and metabolism category): take up and metabolise the drug
  Treatment % difference in peak RLU a) L:LI: −4.00%
  Treatment % difference in peak RLU b) L:LIP: 62.40%
  Treatment % difference in peak RLU c) LI:LIP: 48.03%
[7]; Table 3 patient 3
  interaction of the drug with the patient sample (uptake and metabolism category): takes up but does not metabolise the drug
  Treatment % difference in peak RLU a) L:LI: −81.04%
  Treatment % difference in peak RLU b) L:LIP: −120.00%
  Treatment % difference in peak RLU c) LI:LIP: −4.51%
[7]; Table 3 patient 4, not clinically confirmed
  interaction of the drug with the patient sample (uptake and metabolism category): resistant to take up of the drug
[7]; Table 3 patient 4
  Treatment % difference in peak RLU a) L:LI: 2.28%
  Treatment % difference in peak RLU b) L:LIP: 3.28%
  Treatment % difference in peak RLU c) LI:LIP: 0.88%
[7]; Table 3 patient 5
  Treatment % difference in peak RLU a) L:LI: −61.46%
  Treatment % difference in peak RLU b) L:LIP: −98.39%
  Treatment % difference in peak RLU c) LI:LIP: −13.87%
[7]; Table 3 patient 6
  Treatment % difference in peak RLU a) L:LI: −13.59%
  Treatment % difference in peak RLU b) L:LIP: −7.03%
  Treatment % difference in peak RLU c) LI:LIP: 5.50%
[7]; Table 3 patient 7
  Treatment % difference in peak RLU a) L:LI: −16.37%
  Treatment % difference in peak RLU b) L:LIP: −16.37%
  Treatment % difference in peak RLU c) LI:LIP: 1.20%
[1]; drug-treated cultures, IPTG present, p=0.0001
  light output (bioluminescence, RLU) of reporter strain: significant increase in light output
[1]; in the presence of Ara-C, induced by IPTG, nutrient rich medium
  growth (OD600) of reporter strain: reduced growth
[1]; low concentrations of Ara-C, FIG. 2
  lowest concentration the bacterial biosensor responds to: 0.05 µM
[8]; [11]
  Clinical Outcome: NR
[8]; [12]
  Clinical Outcome: CR
[8]; [13]
  Clinical Outcome: NR
[8]; [15]
  Clinical Outcome: NR
[8]; [16]
  Clinical Outcome: NR
[8]; Table 2 patient 7, diagnosis M3 (Remission, death)
  Clinical Outcome: Remission
[8]; Table 3 patient 1
  Clinical Outcome: sensitive
[8]; Table 3 patient 2
  Clinical Outcome: sensitive
[8]; Table 3 patient 3
  Clinical Outcome: resistant
[8]; Table 3 patient 7
  Clinical Outcome: resistant
[9]
  light output from IPTG-induced lysate with BAP: significant increase in the light output
  light output from IPTG-induced lysate without BAP: significant increase in the light output
[10]
  relative growth of SØ5218: reduced relative growth

Source: US9382568B2, “Determining the sensitivity of a cell to a drug” (RANDOX LABORATORIES LTD., priority 2008, dated 2016)
